Assay results published in ChEMBL document CHEMBL1201862, “PubChem BioAssay data set” (2004).
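Protocol summary: plate cells (96-well), add compound at 5 concentrations, incubate 48 h, interpolate endpoints linearly. GI50: concentration for 50% inhibition of growth.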 The source made the active and inactive calls. Rule as the data show it: active = GI50 up to about 1.1 µM and inactive = higher.

What was measured:
Test in all cases: DTP human tumour cell line panel, 48 h
786-0 = system: 786-0
A498 = system: A498
A549 = system: A549
ACHN = system: ACHN
BT-549 = system: BT-549
CAKI-1 = system: CAKI-1
CCRF-CEM = system: CCRF-CEM
COLO 205 = system: COLO 205
DU-145 = system: DU-145
EKVX = system: EKVX
HCC 2998 = system: HCC 2998
HCT-116 = system: HCT-116
HCT-15 = system: HCT-15
HOP-62 = system: HOP-62
HOP-92 = system: HOP-92
HT-29 = system: HT-29
Hs-578T = system: Hs-578T
IGROV-1 = system: IGROV-1
K562 = system: K562
KM12 = system: KM12
LOX IMVI = system: LOX IMVI
M14 = system: M14
MCF7 = system: MCF7
MDA-MB-231 = system: MDA-MB-231
MDA-MB-435 = system: MDA-MB-435
MDA-N = system: MDA-N
MOLT-4 = system: MOLT-4
Malme-3M = system: Malme-3M
NCI-H226 = system: NCI-H226
NCI-H23 = system: NCI-H23
NCI-H460 = system: NCI-H460
NCI-H522 = system: NCI-H522
NCI/ADR-RES = system: NCI/ADR-RES
OVCAR-3 = system: OVCAR-3
OVCAR-4 = system: OVCAR-4
OVCAR-5 = system: OVCAR-5
OVCAR-8 = system: OVCAR-8
PC-3 = system: PC-3
RPMI-8226 = system: RPMI-8226
RXF 393 = system: RXF 393
SF-268 = system: SF-268
SF-295 = system: SF-295
SF-539 = system: SF-539
SK-MEL-28 = system: SK-MEL-28
SK-MEL-2 = system: SK-MEL-2
SK-MEL-5 = system: SK-MEL-5
SK-OV-3 = system: SK-OV-3
SN12C = system: SN12C
SNB-19 = system: SNB-19
SNB-75 = system: SNB-75
SR = system: SR
SW-620 = system: SW-620
T47D = system: T47D
TK-10 = system: TK-10
U-251 = system: U-251
UACC-257 = system: UACC-257
UACC-62 = system: UACC-62
UO-31 = system: UO-31
HL-60 = system: HL-60

CSc1n[nH]c2[nH]nc(C)c12
GI50 (786-0): > 100 µM (inactive) | GI50 (A498): > 100 µM (inactive) | GI50 (A549): > 100 µM (inactive) | GI50 (ACHN): > 100 µM (inactive) | GI50 (BT-549): > 100 µM (inactive) | GI50 (CAKI-1): > 100 µM (inactive) | GI50 (CCRF-CEM): > 100 µM (inactive) | GI50 (COLO 205): > 100 µM (inactive) | GI50 (DU-145): > 100 µM (inactive) | GI50 (EKVX): > 100 µM (inactive) | GI50 (HCC 2998): > 100 µM (inactive) | GI50 (HCT-116): > 100 µM (inactive) | GI50 (HCT-15): > 100 µM | GI50 (HOP-62): > 100 µM (inactive) | GI50 (HOP-92): > 100 µM (inactive) | GI50 (HT-29): > 100 µM (inactive) | GI50 (Hs-578T): > 100 µM (inactive) | GI50 (IGROV-1): > 100 µM (inactive) | GI50 (K562): > 74 µM (inactive) | GI50 (KM12): > 100 µM (inactive) | GI50 (LOX IMVI): > 100 µM (inactive) | GI50 (M14): > 100 µM (inactive) | GI50 (MCF7): > 100 µM (inactive) | GI50 (MDA-MB-231): > 100 µM (inactive) | GI50 (MDA-MB-435): > 100 µM (inactive) | GI50 (MDA-N): > 100 µM (inactive) | GI50 (MOLT-4): 8.53 µM (inactive) | GI50 (Malme-3M): > 100 µM (inactive) | GI50 (NCI-H226): > 100 µM (inactive) | GI50 (NCI-H23): > 100 µM (inactive) | GI50 (NCI-H460): > 100 µM (inactive) | GI50 (NCI-H522): > 100 µM (inactive) | GI50 (NCI/ADR-RES): > 100 µM (inactive) | GI50 (OVCAR-3): > 100 µM (inactive) | GI50 (OVCAR-4): > 100 µM (inactive) | GI50 (OVCAR-5): > 100 µM (inactive) | GI50 (OVCAR-8): > 100 µM (inactive) | GI50 (PC-3): > 100 µM (inactive) | GI50 (RPMI-8226): > 100 µM (inactive) | GI50 (RXF 393): > 100 µM (inactive) | GI50 (SF-268): > 100 µM (inactive) | GI50 (SF-295): > 100 µM (inactive) | GI50 (SF-539): > 100 µM (inactive) | GI50 (SK-MEL-28): > 100 µM (inactive) | GI50 (SK-MEL-2): > 100 µM (inactive) | GI50 (SK-MEL-5): > 100 µM (inactive) | GI50 (SK-OV-3): > 100 µM (inactive) | GI50 (SN12C): > 100 µM (inactive) | GI50 (SNB-19): > 100 µM (inactive) | GI50 (SNB-75): > 100 µM (inactive) | GI50 (SR): 5.22 µM (inactive) | GI50 (SW-620): > 100 µM (inactive) | GI50 (T47D): > 100 µM (inactive) | GI50 (TK-10): > 100 µM (inactive) | GI50 (U-251): > 100 µM (inactive) | GI50 (UACC-257): > 100 µM (inactive) | GI50 (UACC-62): > 100 µM (inactive) | GI50 (UO-31): > 100 µM (inactive)

Clc1ccc(Cc2nc3ccccc3o2)cc1
GI50 (786-0): 96.4 µM (inactive) | GI50 (A549): 75 µM (inactive) | GI50 (ACHN): > 100 µM (inactive) | GI50 (BT-549): 35.8 µM (inactive) | GI50 (CAKI-1): 54.8 µM (inactive) | GI50 (CCRF-CEM): 40.1 µM (inactive) | GI50 (COLO 205): 74.6 µM (inactive) | GI50 (DU-145): > 100 µM (inactive) | GI50 (EKVX): 40.1 µM (inactive) | GI50 (HCC 2998): 54 µM (inactive) | GI50 (HCT-116): 66.7 µM (inactive) | GI50 (HCT-15): 39.3 µM | GI50 (HL-60): 40.2 µM (inactive) | GI50 (HOP-62): > 100 µM (inactive) | GI50 (HOP-92): > 100 µM (inactive) | GI50 (HT-29): 40.2 µM (inactive) | GI50 (Hs-578T): > 100 µM (inactive) | GI50 (IGROV-1): > 100 µM (inactive) | GI50 (K562): 50.7 µM (inactive) | GI50 (KM12): 69.8 µM (inactive) | GI50 (LOX IMVI): > 100 µM (inactive) | GI50 (M14): > 100 µM (inactive) | GI50 (MCF7): 51.4 µM (inactive) | GI50 (MDA-MB-231): > 100 µM (inactive) | GI50 (MDA-MB-435): > 100 µM (inactive) | GI50 (MDA-N): > 100 µM (inactive) | GI50 (MOLT-4): 38.5 µM (inactive) | GI50 (Malme-3M): > 100 µM (inactive) | GI50 (NCI-H226): 40.4 µM (inactive) | GI50 (NCI-H23): 56 µM (inactive) | GI50 (NCI-H460): > 100 µM (inactive) | GI50 (NCI-H522): 33.8 µM (inactive) | GI50 (NCI/ADR-RES): 42 µM (inactive) | GI50 (OVCAR-3): 52.8 µM (inactive) | GI50 (OVCAR-4): 48.2 µM (inactive) | GI50 (OVCAR-5): > 100 µM (inactive) | GI50 (OVCAR-8): > 100 µM (inactive) | GI50 (PC-3): 55.8 µM (inactive) | GI50 (RPMI-8226): 27.6 µM (inactive) | GI50 (RXF 393): 25.3 µM (inactive) | GI50 (SF-268): > 100 µM (inactive) | GI50 (SF-295): 57.8 µM (inactive) | GI50 (SF-539): > 100 µM (inactive) | GI50 (SK-MEL-28): > 100 µM (inactive) | GI50 (SK-MEL-2): > 100 µM (inactive) | GI50 (SK-MEL-5): 31.3 µM (inactive) | GI50 (SK-OV-3): > 100 µM (inactive) | GI50 (SN12C): > 100 µM (inactive) | GI50 (SNB-19): > 100 µM (inactive) | GI50 (SNB-75): 20 µM (inactive) | GI50 (SR): 50.5 µM (inactive) | GI50 (SW-620): > 100 µM (inactive) | GI50 (T47D): 27.2 µM (inactive) | GI50 (TK-10): > 100 µM (inactive) | GI50 (U-251): 72.1 µM (inactive) | GI50 (UACC-257): 52.1 µM (inactive) | GI50 (UACC-62): > 100 µM (inactive) | GI50 (UO-31): 67.6 µM (inactive)
